Source: patent publication US8609699B2, “Oxotetrahydrofuran-2-yl-benzimidazole derivative” (MSD K.K., priority 2008, dated 2013)
Blank lines part the entries; values can stand above or below the compound they belong to.

Tests used:
[1] = molecular target: T1, recombinant human liver GK (Homo sapiens, UniProt P35557); test: Glucokinase-activating effect (Thio-NADH, G6PDH-coupled assay); format: biochemical; details: final glucose 2.5 mM, 30° C; for Emax(%): OD level of DMSO control = 100%
T1 construct: made in house; host or cells: E. coli
T1 sequence (P35557 1-466 isoform P35557-2): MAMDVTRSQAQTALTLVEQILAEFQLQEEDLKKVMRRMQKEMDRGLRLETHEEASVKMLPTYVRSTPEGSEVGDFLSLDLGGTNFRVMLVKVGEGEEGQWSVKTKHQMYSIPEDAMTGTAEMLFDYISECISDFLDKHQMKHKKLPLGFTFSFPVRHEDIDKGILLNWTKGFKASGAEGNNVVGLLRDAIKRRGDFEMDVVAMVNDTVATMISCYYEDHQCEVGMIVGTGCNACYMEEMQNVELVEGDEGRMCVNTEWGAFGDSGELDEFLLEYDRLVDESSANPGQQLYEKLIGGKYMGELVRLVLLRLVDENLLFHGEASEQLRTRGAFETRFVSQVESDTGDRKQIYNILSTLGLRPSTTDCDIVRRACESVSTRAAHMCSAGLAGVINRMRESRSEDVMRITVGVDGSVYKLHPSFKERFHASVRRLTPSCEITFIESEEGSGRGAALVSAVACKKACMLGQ
From the text: The excellent glucokinase-activating effect of the compounds of formula (I) may be determined by a method described in literature (for example, Diabetes, Vol. 45, pp. 1671-1677, 1996), or in accordance with it.
The glucokinase activity may be determined not by directly measuring glucose-6-phosphate but by measuring the level of Thio-NADH, which is produced when a reporter enzyme, glucose-6-phosphate dehydrogenase produces phosphogluconolactone from glucose-6-phosphate, and based on the level, the degree of glucokinase activation by the compound tested may be determined.
In this assay, used was a recombinant human liver GK, which was expressed by E. coli as a FLAG fusion protein therein and was purified by ANTIFLAG M2 AFFINITY GEL (Sigma).
Using a flat-bottomed 96-well plate, the assay was carried out at 30° C. 69 μl of an assay buffer (25 mM Hepes Buffer/pH=7.2, 2 mM MgCl2, 1 mM ATP, 0.5 mM TNAD, 1 mM dithiothreitol) was put into the plate, and 1 μl of a DMSO solution of the compound or DMSO alone as a control was added thereto. Next, 20 μl of an enzyme mixture (FLAG-GK, 20 U/ml G6PDH) cooled in ice was added to it, and 10 μl of a substrate, 25 mM glucose was added to it, and the reaction was initiated (final glucose concentration=2.5 mM).
After the start of the reaction, the increase in the absorbance at 405 nm was measured for 12 minutes at intervals of 30 seconds, and the increase for the first 5 minutes was used for assessing the compound tested. FLAG-GK was added so that the absorbance increase after 5 minutes in the presence of 1% DMSO could be from 0.04 to 0.06.
The OD level of the DMSO control was set as 100%; and the OD level of the test compound at different concentrations was determined. From the OD level at each concentration, Emax (%) and EC50 (μM) were computed and used as the index of the GK-activating potency of the compound.
The GK activating effect of the compounds of the invention was measured according to the method as above, and the results are shown in Table 5 below.

[2] = tested on: high-fat diet loaded mice; test: Antihyperglycemic effect in high-fat diet loaded mice; format: in vivo, C57BL/6J mice; details: oral 10 mg/kg in 0.5% methyl cellulose; 1 hour after administration; free-feeding mice
Protocol: Six-week-old male C57BL/6J mice were fed a high-fat diet (RESEARCH DIETS, D12492) for ≧9 weeks to produce the high-fat diet loaded mice (>160 mg/dl).
The slight tail tips of the high-fat diet loaded mice (18-21 weeks old, n=6) under the conditions of free-feeding and water intake were cut with scissors to collect their blood. The collected blood was used to determine blood glucose levels prior to the administration of a compound by a blood glucose level measuring apparatus (One Touch Ultra (Johnson. Johnson)), followed by oral administration of the compound suspended in a 0.5% methyl cellulose solution at 10 mg/kg, while a 0.5% methyl cellulose solution was orally administered to the control group. The blood glucose levels were determined using the blood glucose level measuring apparatus every 1 hour after the administration of the test drug solutions.
The values of the decreases in blood glucose (differences between the control group and the compound-treated group) at 1 hour after administration were shown in Table 7 described below.
The values of the decreases in blood glucose (differences between the control group and the compound-treated group) at 1 hour after administration of the compounds according to Example 1 and Example 7 were shown in Table 7 described below.

male beagles = test: Antihyperglycemic effect in fasted beagles (plasma glucose AUC); format: in vivo; details: compared to control group up to 4 hours after administration, fasted overnight
Protocol: From the cephalic vein of male beagles fasted overnight (9.4-14.4 kg body weight), blood was collected prior to administration, followed by oral administration of the test drug suspended in a 0.5% methyl cellulose solution (0.3 and 1 mg/kg), while a 0.5% methyl cellulose solution was orally administered to the control group. The blood was collected at 0.5, 1, 2, and 4 hours after the administration of the test drug. Plasma was separated from the obtained blood to determine a plasma glucose level using Determina-GL-E (Kyowa Medics).

[3] = racemates, comparison with WO2007/007910

EC50 [1, 3]: 0.53 µM
SMILES: O=C1CCC(c2cc3[nH]c(-c4ccccn4)nc3cc2Oc2ccc(C(=O)N3CCC3)cc2)O1 (racemic) [Example 1 Racemate, 5-{5-[4-(azetidin-1-ylcarbonyl)phenoxy]-2-pyridin-2-yl-1H-benzimidazol-6-yl}dihydrofuran-2(3H)-one]

EC50 [1, 3]: 0.47 µM
SMILES: CN(C)C(=O)Cc1ccc(Oc2cc3nc(-c4ccccn4)[nH]c3cc2C2CCC(=O)O2)cc1 (racemic) [Example 7 Racemate, N,N-dimethyl-2-(4-{[6-(5-oxotetrahydrofuran-2-yl)-2-pyridin-2-yl-1H-benzimidazol-5-yl]oxy}phenyl)acetamide]

EC50 [1, 3]: 0.49 µM
SMILES: COCc1ccc(Oc2cc3nc(-c4ccccn4)[nH]c3cc2C2CCC(=O)O2)cn1 (racemic) [Example 11 Racemate, 5-(5-{[6-(methoxymethyl)pyridin-3-yl]oxy}-2-pyridin-2-yl-1H-benzimidazol-6-yl)dihydrofuran-2(3H)-one]

Emax(%) ([1]; separated enantiomers, listed as 1 A): 541% | EC50 ([1]; separated enantiomers): 1.91 µM
SMILES: O=C1CCC(c2cc3[nH]c(-c4ccccn4)nc3cc2Oc2ccc(C(=O)N3CCC3)cc2)O1 (single isomer, unassigned) [Example 1 A, 5-{5-[4-(azetidin-1-ylcarbonyl)phenoxy]-2-pyridin-2-yl-1H-benzimidazol-6-yl}dihydrofuran-2(3H)-one]

Emax(%) ([1]; separated enantiomers, listed as 1 B): 588% | EC50 ([1]; separated enantiomers): 0.24 µM
SMILES: O=C1CCC(c2cc3[nH]c(-c4ccccn4)nc3cc2Oc2ccc(C(=O)N3CCC3)cc2)O1 (single isomer, unassigned) [Example 1 B, 5-{5-[4-(azetidin-1-ylcarbonyl)phenoxy]-2-pyridin-2-yl-1H-benzimidazol-6-yl}dihydrofuran-2(3H)-one]
Difference from control group (Δmg/dl), decrease in blood glucose [2]: −132 Δmg/dl | Rate of decrease (%) in plasma glucose level AUC (male beagles; oral 0.3 mg/kg): 16.2% | Rate of decrease (%) in plasma glucose level AUC (male beagles; oral 1.0 mg/kg): 23.4%

Emax(%) ([1]; separated enantiomers, listed as 2 A): 476% | EC50 ([1]; separated enantiomers): 15.1 µM
SMILES: O=C1CCC(c2cc3[nH]c(-c4ccccn4)nc3cc2Oc2ccc(C(=O)N3CCC3)nc2)O1 (single isomer, unassigned) [Example 2 A, 5-(5-{[6-(azetidin-1-ylcarbonyl)pyridin-3-yl)oxy}-2-pyridin-2-yl-1H-benzimidazol-6-yl)dihydrofuran-2(3H)-one]

Emax(%) ([1]; separated enantiomers, listed as 2 B): 704% | EC50 ([1]; separated enantiomers): 0.31 µM
SMILES: O=C1CCC(c2cc3[nH]c(-c4ccccn4)nc3cc2Oc2ccc(C(=O)N3CCC3)nc2)O1 (single isomer, unassigned) [Example 2 B, 5-(5-{[6-(azetidin-1-ylcarbonyl)pyridin-3-yl)oxy}-2-pyridin-2-yl-1H-benzimidazol-6-yl)dihydrofuran-2(3H)-one]

Emax(%) ([1]; separated enantiomers, listed as 4 A): 432% | EC50 ([1]; separated enantiomers): 15.9 µM
SMILES: CN(C)C(=O)c1ccc(Oc2cc3nc(-c4ccccn4)[nH]c3cc2C2CCC(=O)O2)cn1 (single isomer, unassigned) [Example 4 A, N,N-dimethyl-5-{[6-(5-oxotetrahydrofuran-2-yl)-2-pyridin-2-yl-1H-benzimidazol-5-yl]oxy}pyridine-2-carboxamide]

Emax(%) ([1]; separated enantiomers, listed as 4 B): 668% | EC50 ([1]; separated enantiomers): 0.28 µM
SMILES: CN(C)C(=O)c1ccc(Oc2cc3nc(-c4ccccn4)[nH]c3cc2C2CCC(=O)O2)cn1 (single isomer, unassigned) [Example 4 B, N,N-dimethyl-5-{[6-(5-oxotetrahydrofuran-2-yl)-2-pyridin-2-yl-1H-benzimidazol-5-yl]oxy}pyridine-2-carboxamide]

Emax(%) ([1]; separated enantiomers, listed as 6 A): 553% | EC50 ([1]; separated enantiomers): 1.83 µM
SMILES: CCNC(=O)c1ccc(Oc2cc3nc(-c4ccccn4)[nH]c3cc2C2CCC(=O)O2)cn1 (single isomer, unassigned) [Example 6 A, N-ethyl-5-{[6-(5-oxotetrahydrofuran-2-yl)-2-pyridin-2-yl-1H-benzimidazol-5-yl]oxy}pyridine-2-carboxamide]

Emax(%) ([1]; separated enantiomers, listed as 6 B): 781% | EC50 ([1]; separated enantiomers): 0.24 µM
SMILES: CCNC(=O)c1ccc(Oc2cc3nc(-c4ccccn4)[nH]c3cc2C2CCC(=O)O2)cn1 (single isomer, unassigned) [Example 6 B, N-ethyl-5-{[6-(5-oxotetrahydrofuran-2-yl)-2-pyridin-2-yl-1H-benzimidazol-5-yl]oxy}pyridine-2-carboxamide]

Emax(%) ([1]; separated enantiomers, listed as 7 A): 775% | EC50 ([1]; separated enantiomers): 2.47 µM
SMILES: CN(C)C(=O)Cc1ccc(Oc2cc3nc(-c4ccccn4)[nH]c3cc2C2CCC(=O)O2)cc1 (single isomer, unassigned) [Example 7 A, N,N-dimethyl-2-(4-{[6-(5-oxotetrahydrofuran-2-yl)-2-pyridin-2-yl-1H-benzimidazol-5-yl]oxy}phenyl)acetamide]

Emax(%) ([1]; separated enantiomers, listed as 7 B): 972% | EC50 ([1]; separated enantiomers): 0.29 µM
SMILES: CN(C)C(=O)Cc1ccc(Oc2cc3nc(-c4ccccn4)[nH]c3cc2C2CCC(=O)O2)cc1 (single isomer, unassigned) [Example 7 B, N,N-dimethyl-2-(4-{[6-(5-oxotetrahydrofuran-2-yl)-2-pyridin-2-yl-1H-benzimidazol-5-yl]oxy}phenyl)acetamide]
Difference from control group (Δmg/dl), decrease in blood glucose [2]: −146 Δmg/dl | Rate of decrease (%) in plasma glucose level AUC (male beagles; oral 0.3 mg/kg): 12.4% | Rate of decrease (%) in plasma glucose level AUC (male beagles; oral 1.0 mg/kg): 15.6%

Emax(%) ([1]; separated enantiomers, listed as 11 A): 412% | EC50 ([1]; separated enantiomers): 16.6 µM
SMILES: COCc1ccc(Oc2cc3nc(-c4ccccn4)[nH]c3cc2C2CCC(=O)O2)cn1 (single isomer, unassigned) [Example 11 A, 5-(5-{[6-(methoxymethyl)pyridin-3-yl]oxy}-2-pyridin-2-yl-1H-benzimidazol-6-yl)dihydrofuran-2(3H)-one]

Emax(%) ([1]; separated enantiomers, listed as 11 B): 788% | EC50 ([1]; separated enantiomers): 0.27 µM
SMILES: COCc1ccc(Oc2cc3nc(-c4ccccn4)[nH]c3cc2C2CCC(=O)O2)cn1 (single isomer, unassigned) [Example 11 B, 5-(5-{[6-(methoxymethyl)pyridin-3-yl]oxy}-2-pyridin-2-yl-1H-benzimidazol-6-yl)dihydrofuran-2(3H)-one]
